Reference: US20100105764A1 (priority 2006, published 2010)
Read-outs that look alike come from different tables or passages of the source.

Key:
[1] = rats; cited from earlier work
[2] = target: T1, E1-STS (Homo sapiens, UniProt P08842); conditions: cited from earlier work
T1 sequence (P08842 22-583): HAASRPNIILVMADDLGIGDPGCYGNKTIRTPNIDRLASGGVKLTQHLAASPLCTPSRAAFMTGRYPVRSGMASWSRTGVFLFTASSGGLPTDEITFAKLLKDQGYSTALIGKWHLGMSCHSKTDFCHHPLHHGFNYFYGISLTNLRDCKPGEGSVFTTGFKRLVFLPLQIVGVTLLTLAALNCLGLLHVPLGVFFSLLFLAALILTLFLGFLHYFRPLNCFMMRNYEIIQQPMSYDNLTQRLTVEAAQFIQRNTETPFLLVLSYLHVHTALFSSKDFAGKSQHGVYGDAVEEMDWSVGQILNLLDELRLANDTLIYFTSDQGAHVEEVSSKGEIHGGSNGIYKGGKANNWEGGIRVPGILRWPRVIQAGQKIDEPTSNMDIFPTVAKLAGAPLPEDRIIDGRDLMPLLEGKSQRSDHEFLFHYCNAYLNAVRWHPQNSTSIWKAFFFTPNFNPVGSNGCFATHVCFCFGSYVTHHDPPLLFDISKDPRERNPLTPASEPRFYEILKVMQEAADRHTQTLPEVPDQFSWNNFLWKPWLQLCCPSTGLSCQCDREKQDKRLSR

[3] = target: T2, dehydroepiandrosterone sulphatase (DHEA-STS) (Homo sapiens, UniProt P08842); conditions: cited from earlier work
T2 sequence (P08842 22-583): T1 sequence (P08842 22-583)

[4] = target: T1, E1-STS; design: E1-STS activity in intact MCF-7 cells; endogenous in cells; host or cells: MCF-7 cells (intact); conditions: intact MCF-7 cells, at 0.1 nM; cited from earlier work
[5] = target: T3, STS (Homo sapiens, UniProt P08842); assay: Phase I trial: STS activity in peripheral and tumour tissues; type: in vivo; conditions: postmenopausal women with breast cancer
T3 construct: STS activity in peripheral and tumour tissues in postmenopausal women with breast cancer; from tissue; host or cells: peripheral and breast tumour tissues of patients
T3 sequence (P08842 22-583): T1 sequence (P08842 22-583)
Source text: (§1) In addition to the aromatase pathway for the synthesis of estrogens in postmenopausal women, the sulfatase route is also important of the formation of steroids with potent estrogenic properties. Steroid sulfatase (STS) is responsible for the hydrolysis of estrone sulfate (E1S) and dehydroepiandrosterone sulfate (DHEAS) to estrone (E1) and DHEA respectively, which can be reduced in the body to estradiol (E2) and androstenediol (Adiol), both of which have potent estrogenic properties (FIGS. 3 & 4; reviewed in Reed et al., Endocrine Reviews, 256:171-202, 2005).

[6] = Phase I trial: serum steroid levels; type: in vivo; conditions: postmenopausal women with breast cancer
Source text: The assay for the determination of androstenedione, testosterone, E1 and E2 was the gas chromatographic tandem mass spectroscopic method of Wang et al., (2005). Recombinant cell ultra-sensitive bioassay for measurements of estrogens in postmenopausal women J Clin Endocrinol Metab 90: 1407-1413, 2005.
as §1, with “2005). […] This provides evidence for an aromatase independent pathway.” for “2005).”

[7] = system: tumours derived from MCF 7STS cells; type: in vivo; conditions: initial experiments, nude mice, FIG. 5
[8] = system: tumours derived from MCF-7AROM cells; assay: Study 2: growth of tumours derived from MCF-7AROM cells in nude mice; type: in vivo; conditions: Study 2, A4 plus E2S stimulated; oral administration; letrozole 0.1 mg/kg; FIGS. 9-11
Procedure: (§2) Ovariectomised, athymic female MF-1 nude mice (nu/nu) (age 6-8 weeks) were obtained from Harlan Olac. Twenty four hours before the inoculation of MCF-7 cells animals were injected s.c. with androstenedione (A4) or estradiol sulfate (E2S). On the day of inoculation MCF-7 cells (50 μl in Matrigel) were injected s.c. into the flanks of mice. After cell inoculation mice were injected with A4 and E2S and received another injection of these steroids 24 h later. Mice then received A4 plus E2S 3 times per week until the end of the study. When tumours had reached approximately 80 mm^3 dosing was initiated with compounds being administered orally (100 μl; vehicle 10% THF: 90% propylene glycol). Tumour measurements and the weight of animals were recorded weekly.
(§3) MCF-7 cells were routinely cultured in RPMI with 10% FCS. The cDNAs for either the aromatase or STS were cloned into the pCl-Neo vector which contains the neomycin resistant gene and transfected into MCF-7 cells. Stable clones were selected using G418 and cell lines established and evaluated for enzyme expression and activity.
(§4) This study was similar to the previous one with the exception that MCF-7STS or MCF-7AROM cells (1×10^7) were inoculated into different flanks of the same animals. The doses of A4 and E2S were increased to 100 μg for each compound.

[9] = system: tumours derived from MCF-7STS cells; assay: Study 2: growth of tumours derived from MCF-7STS cells in nude mice; type: in vivo; conditions: Study 2, A4 plus E2S stimulated; oral administration; letrozole 0.1 mg/kg; FIGS. 9-11
Procedure: as §2, §3, §4

[10] = type: in vivo, mice
Procedure: as §2, §4

[11] = system: MCF-7WT tumours; assay: Study 1: MCF-7WT tumour growth in nude mice; type: in vivo; conditions: Study 1, A4 plus E2S stimulated; oral; letrozole 0.1 mg/kg, STX213 10 mg/kg p.o. 5/7 per week; FIG. 6
Procedure: as §2, §3
(§5) For this study MCF-7 cells over-expressing aromatase or STS were mixed and inoculated (5×10^6 cells) in Matrigel into the flanks of nude mice. A similar number of MCF-7WT cells were inoculated into the other flank. […]

[12] = system: MCF-7STS+MCF-7AROM tumours; assay: Study 1: MCF-7STS+MCF-7AROM tumour growth in nude mice; type: in vivo; conditions: Study 1, A4 plus E2S stimulated; oral; letrozole 0.1 mg/kg, STX213 10 mg/kg p.o. 5/7 per week; FIG. 6
Procedure: as §2, §3, §5

[13] = type: in vivo; conditions: for toxic effects (animal growth): Study 1, FIG. 7
Procedure: as §2
For this study MCF-7 cells over-expressing aromatase or STS were mixed and inoculated (5×10^6 cells) in Matrigel into the flanks of nude mice. A similar number of MCF-7WT cells were inoculated into the other flank. For this study growth of tumours was stimulated by s.c. injection of A4 (50 μg) and E2S (50 μg) in 50 μl vehicle.

| Compound | mode of E1-STS inhibition (inactivation) [2] | growth of tumours derived from MCF 7STS cells [7] | growth of tumours derived from MCF-7AROM cells [8] | growth of tumours derived from MCF-7STS cells [9] | growth of MCF-7WT tumours [11] | growth of MCF-7STS+MCF-7AROM tumours [12] | toxic effects (animal growth) [13] | other results |
| --- | --- | --- | --- | --- | --- | --- | --- | --- |
| CC12CCC3c4ccc(OS(N)(=O)=O)cc4CCC3C1CCC2=O (stereo not shown) [EMATE, oestrone-3-sulphamate] | time- and concentration-dependent manner | – | – | – | – | – | – | effect on memory [1]: memory enhancing effect; inhibition of DHEA-STS [3]: also inhibits; inhibition of E1-STS activity [4]: more than 99% |
| NS(=O)(=O)Oc1ccc2c3c(c(=O)oc2c1)CCCCC3 [STX64] | – | could be inhibited | significant inhibition | significant inhibition | – | – | – | STS activity in peripheral and tumour tissues [5]: effectively blocked STS activity; levels of androstenedione [6]: reduced; levels of testosterone [6]: reduced; serum oestrogen concentrations [6]: reducing serum oestrogen concentrations; tolerability, effects on animal weight ([10]; Study 2, FIG. 12): well tolerated with no effects on animal weight |
| CCCN1C(=O)CC2C3CCc4cc(OS(N)(=O)=O)ccc4C3CC[C@]2(C)C1=O (stereo partly shown) [STX213] | – | could be inhibited | – | – | significantly reduced the growth | significantly reduced the growth | Neither STX213 nor letrozole appeared to have any toxic effects | toxicity as shown by body weight ([13]; Study 1, at the dose tested, FIG. 7): devoid of any toxicity |
| N#Cc1ccc(C(c2ccc(C#N)cc2)n2cncn2)cc1 [letrozole, reference compound] | – | – | significant inhibition | did not affect the growth | some reduction of tumour growth | some reduction of tumour growth | Neither STX213 nor letrozole appeared to have any toxic effects | tolerability, effects on animal weight ([10]; mouse, in vivo): well tolerated with no effects on animal weight |
| oestrone-3-N-sulphamate | weaker non-time-dependent inactivators | – | – | – | – | – | – | – |
| oestrone-3-S-sulphamate | weaker non-time-dependent inactivators | – | – | – | – | – | – | – |
